According to ChEMBL document CHEMBL1201862, “PubChem BioAssay data set” (2004):
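Assay format: 96-well plates, 48-hour exposure. GI50: concentration for 50% inhibition of growth.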 Activity calls are given as the source filed them. Rule as the data show it: active = GI50 up to about 1.1 µM and inactive = higher.

What was measured:
Assay in all cases: NCI anticancer screen, dose series, 48 h
[1] = system: SF-295
[2] = system: HCC 2998
[3] = system: NCI-H522
[4] = system: U-251
[5] = system: TK-10
[6] = system: A549
[7] = system: CAKI-1
[8] = system: HOP-92
[9] = system: SR
[10] = system: HT-29
[11] = system: SNB-19
[12] = system: ACHN
[13] = system: HCT-116
[14] = system: PC-3
[15] = system: RXF 393
[16] = system: SNB-75
[17] = system: OVCAR-8
[18] = system: Malme-3M
[19] = system: SN12C
[20] = system: SF-268

Compound	GI50 [1]	GI50 [2]	GI50 [3]	GI50 [4]	GI50 [5]	GI50 [6]	GI50 [7]	GI50 [8]	GI50 [9]	GI50 [10]	GI50 [11]	GI50 [12]	GI50 [13]	GI50 [14]	GI50 [15]	GI50 [16]	GI50 [17]	GI50 [18]	GI50 [19]	GI50 [20]
O=C1C2=C(C(=O)c3c(O)ccc(O)c31)[C@@H](O)[C@@H](O)[C@@H](O)C2	7.24 µM (inactive)	7.33 µM (inactive)	0.367 µM (active)	4.82 µM (inactive)	1.52 µM (inactive)	3.21 µM (inactive)	1.37 µM (inactive)	1.34 µM (inactive)	> 100 µM (inactive)	1.32 µM (inactive)	13.1 µM (inactive)	2.52 µM (inactive)	0.47 µM (active)	2.66 µM (inactive)	1.85 µM (inactive)	3.43 µM (inactive)	2.31 µM (inactive)	1.14 µM (inactive)	2.01 µM (inactive)	2.78 µM (inactive)
O=[N+]([O-])c1ccc(C2=NOC(c3ccc(Cl)cc3)N2C23CC4CC(CC(C4)C2)C3)cc1 (stereo not given)	> 100 µM (inactive)	64.1 µM (inactive)	> 100 µM (inactive)	> 100 µM (inactive)	> 100 µM (inactive)	56.9 µM (inactive)	16.6 µM (inactive)	25.5 µM (inactive)	67.9 µM (inactive)	> 100 µM (inactive)	> 100 µM (inactive)	9.71 µM (inactive)	28.1 µM (inactive)	> 100 µM (inactive)	1.86 µM (inactive)	> 100 µM (inactive)	> 100 µM (inactive)	> 100 µM (inactive)	> 100 µM (inactive)	> 100 µM (inactive)
Nc1c2c(nc3ccccc13)-c1ccccc1CCC2	5.98 µM (inactive)	3.08 µM (inactive)	15.6 µM (inactive)	15 µM (inactive)	10.7 µM (inactive)	13.8 µM (inactive)	14.4 µM (inactive)	9.12 µM (inactive)	2.39 µM (inactive)	10.3 µM (inactive)	17.7 µM (inactive)	13.7 µM (inactive)	7.16 µM (inactive)	15.1 µM (inactive)	11.2 µM (inactive)	10.2 µM (inactive)	15 µM (inactive)	14.4 µM (inactive)	16.3 µM (inactive)	17.6 µM (inactive)
FC(F)(F)c1cccc(-c2nc3nc(Cl)c(Cl)nc3[nH]2)c1	2.05 µM (inactive)	3.11 µM (inactive)	0.764 µM (active)	1.85 µM (inactive)	4.95 µM (inactive)	2 µM (inactive)	2.73 µM (inactive)	0.889 µM (active)	2.62 µM (inactive)	2.18 µM (inactive)	3.27 µM (inactive)	2.63 µM (inactive)	2.09 µM (inactive)	2.5 µM (inactive)	3.1 µM (inactive)	2.42 µM (inactive)	3.06 µM (inactive)	1.73 µM (inactive)	2.69 µM (inactive)	3.03 µM (inactive)
C=CCNc1nc2c(s1)C(=O)c1ccccc1C2=O	14.8 µM (inactive)	20.7 µM (inactive)	6.41 µM (inactive)	7.55 µM (inactive)	19.2 µM (inactive)	6.43 µM (inactive)	13.7 µM (inactive)	9.31 µM (inactive)	3.43 µM (inactive)	21.8 µM (inactive)	14.9 µM (inactive)	7.62 µM (inactive)	3.81 µM (inactive)	12.6 µM (inactive)	18.6 µM (inactive)	18.7 µM (inactive)	3.73 µM (inactive)	12.5 µM (inactive)	11.6 µM (inactive)	12.4 µM (inactive)
Cc1cc2c(cc1C)C(=O)c1ncccc1C2=O	41.8 µM (inactive)	33.4 µM (inactive)	16.7 µM (inactive)	35.7 µM (inactive)	> 100 µM (inactive)	22.7 µM (inactive)	36.6 µM (inactive)	58.6 µM (inactive)	< 0.01 µM (active)	23.3 µM (inactive)	34.8 µM (inactive)	37.2 µM (inactive)	19.9 µM (inactive)	29 µM (inactive)	33.2 µM (inactive)	54.5 µM (inactive)	31.9 µM (inactive)	7.85 µM (inactive)	22.6 µM (inactive)	49.3 µM (inactive)
CCOC(=O)CCC(NC(=O)c1ccc(CNc2nc3cc(N)cc(N)c3nc2-c2ccccc2)cc1)C(=O)OCC (stereo not given)	> 100 µM (inactive)	> 100 µM (inactive)	28.4 µM (inactive)	> 100 µM (inactive)	> 100 µM (inactive)	> 100 µM (inactive)	> 100 µM (inactive)	39.9 µM (inactive)	3.64 µM (inactive)	> 100 µM (inactive)	> 100 µM (inactive)	> 100 µM (inactive)	> 95.9 µM (inactive)	> 100 µM (inactive)	> 58.9 µM (inactive)	> 100 µM (inactive)	> 100 µM (inactive)	18.3 µM (inactive)	> 61.5 µM (inactive)	> 100 µM (inactive)
COc1cc2c3cc1Oc1c(OC)c(OC)cc4c1C(Cc1ccc(O)c(c1)Oc1ccc(cc1)CC3N(C)CC2)CN(C)C4 (stereo not given)	17.9 µM (inactive)	3.44 µM (inactive)	12.5 µM (inactive)	12.3 µM (inactive)	16.1 µM (inactive)	22.5 µM (inactive)	20.2 µM (inactive)	16 µM (inactive)	6.14 µM (inactive)	3.24 µM (inactive)	24.3 µM (inactive)	27.4 µM (inactive)	6.05 µM (inactive)	21.1 µM (inactive)	10.6 µM (inactive)	14.2 µM (inactive)	15 µM (inactive)	16.8 µM (inactive)	15.8 µM (inactive)	20.4 µM (inactive)
CC(=O)OCC1OC(n2c(-c3ccccc3)c(C(C)=O)c(-c3ccc(Cl)cc3)c(C#N)c2=S)C(OC(C)=O)C(OC(C)=O)C1OC(C)=O (stereo not given)	> 100 µM (inactive)	> 100 µM (inactive)	> 100 µM (inactive)	> 100 µM (inactive)	> 100 µM (inactive)	> 100 µM (inactive)	99.8 µM (inactive)	0.601 µM (active)	> 100 µM (inactive)	> 100 µM (inactive)	> 100 µM (inactive)	> 100 µM (inactive)	83.2 µM (inactive)	1.93 µM (inactive)	65.5 µM (inactive)	32.3 µM (inactive)	> 100 µM (inactive)	> 100 µM (inactive)	> 100 µM (inactive)	50.4 µM (inactive)
CCOC1OC(COC(=O)C(C)(C)C)C(O)CC1n1cc(C)c(=O)[nH]c1=O (stereo not given)	> 100 µM (inactive)	> 100 µM (inactive)	> 100 µM (inactive)	> 100 µM (inactive)	> 100 µM (inactive)	> 100 µM (inactive)	> 100 µM (inactive)	> 100 µM (inactive)	> 100 µM (inactive)	> 100 µM (inactive)	> 100 µM (inactive)	> 100 µM (inactive)	> 100 µM (inactive)	> 100 µM (inactive)	> 100 µM (inactive)	> 100 µM (inactive)	> 100 µM (inactive)	> 100 µM (inactive)	> 100 µM (inactive)	> 100 µM (inactive)
CCOC(=O)C(C(=S)SC)c1nn2c(=O)cc(C)nc2s1 (stereo not given)	20.3 µM (inactive)	25.5 µM (inactive)	21.1 µM (inactive)	16 µM (inactive)	35.1 µM (inactive)	19.5 µM (inactive)	19.9 µM (inactive)	21.7 µM (inactive)	15.7 µM (inactive)	21.5 µM (inactive)	21.3 µM (inactive)	20.2 µM (inactive)	18.6 µM (inactive)	20.9 µM (inactive)	20.8 µM (inactive)	20.7 µM (inactive)	19.3 µM (inactive)	16.4 µM (inactive)	16.2 µM (inactive)	17.7 µM (inactive)
